# Reference: US11642419B2, “Compositions and methods for treating cardiovascular related disorders” (The Regents of the University of Michigan, priority 2015, dated 2023)
# Tests used:
# [1] = system: ABCA1; assay: qRT-PCR of ABCA1 expression in J774.1 macrophages; type: cell-based, murine; settings: FIG. 3C
# Experimental: (§1) Incorporation of LXR agonist into sHDL is the first and most important step for all subsequent studies. Phospholipids, apoA-I mimetic peptide (22A) and LXR agonist TO901317 (TO) were hydrated in an aqueous solution and the sHDL nanoparticles were formed after 3 cycles of thermal cycling between 25 and 50° C. (see, e.g., Di Bartolo, B. A.; et al., Atherosclerosis 2011, 217 (2), 395-400; Dasseux, J.-L. Peptide/lipid complex formation by co-lyophilization. 2001). The homogeneity of the size distribution was confirmed by gel permeation chromatography (GPC) and scanning electron microscopy (SEM) (FIG. 3A-B). The average particle size of sHDL was 6-14 nm (e.g., 8-10 nm) as determined by dynamic light scattering using a Malvern Nanosizer. […]
# (§2) In macrophages, LXRs control transcription of several genes involved in the cholesterol efflux pathway, including ABCA1 and ABCG1. To examine the ability of TO901317-encapsulated sHDL particles to activate LXR-target genes, J774.1 murine macrophage cells were incubated with sHDL blank particles or TO901317-encapsulated sHDL particles (TO901317 at 10^−6M) for 4 hours and the expression of both genes were measured using quantitative real-time PCR (qRT-PCR). […] The resulting cDNA was amplified with appropriate primers using power SYBR Green PCR Master Mix and analyzed on a CFX real-time PCR system (Bio-Rad). […]
# [2] = system: ABCG1; assay: qRT-PCR of ABCG1 expression in J774.1 macrophages; type: cell-based, murine; settings: FIG. 3D
# Experimental: as §1, §2
# [3] = Plasma lipids in C57BL/6J mice; type: in vivo; settings: TO901317 0.5, 1.5, 10 mg/kg intraperitoneal, 24 hours later, FIG. 8
# Experimental: (§3) FIGS. 8A and 8B show the effects of TO901317-encapsulated sHDL particles on plasma lipids in C57BL/6J Mice. C57BL/6J wild type mice were divided into 8 groups and treated with DMSO, TO901317 at 0.5 mg/kg, TO901317 at 1.5 mg/kg, TO901317 at 10 mg/kg, or sHDL blank particles, TO901317-encapsulated sHDL particles with TO901317 at 0.5 mg/kg, TO901317-encapsulated sHDL particles with TO901317 at 1.5 mg/kg, TO901317-encapsulated sHDL particles with TO901317 at 10 mg/kg via intraperitoneal injection. Twenty-four hours later, collected plasma and liver tissues were stored at −80° C. until processed. Direct LDL-cholesterol (LDL-c), direct HDL-cholesterol (HDL-c), and enzymatic-colorimetric assays used to determine plasma total cholesterol (TC) and triglycerides (TG) were carried out at the Chemistry Laboratory of the Michigan Diabetes Research and Training Center.
# [4] = system: SREBP1c; assay: qRT-PCR of SREBP1c expression in the liver of C57BL/6J mice; type: in vivo; settings: liver tissues from FIG. 8, FIG. 9
# Experimental: To visualize whether sHDL can deliver its cargo to the plaque efficiently, a lipophilic near-infrared fluorescent dye, DiD, was incorporated into sHDL. […] The DiD-labeled sHDL nanoparticles were administrated by tail vein injection at a dose of 100 μg DiD and 10 mg/Kg sHDL to a murine atherosclerosis model. 24 hours post injection, animals were sacrificed and aortas were removed. DiD fluorescence associated with aortas were analyzed using the Xenogen IVIS optical imaging system. […] The side effects of different LXR agonist formulations were assessed.
# as §3, with “Direct LDL-cholesterol (LDL-c), direct HDL-cholesterol (HDL-c), and enzymatic-colorimetric assays used to determine plasma total cholesterol (TC) and triglycerides (TG) were carried out at the Chemistry Laboratory of the Michigan Diabetes Research and Training Center.” left out
# [5] = system: ABCA1; assay: qRT-PCR of ABCA1 in blood monocytes of treated apoE−/− mice; type: in vivo; settings: 1.5 mg/kg TO901317 i.p., three times per week, 6 weeks, FIG. 11
# Experimental: (§4) The effect of TO901317-encapsulated sHDL on target gene expression in monocytes from apoE^−/− mice was also investigated. Six-week-old male apoE^−/− mice were place on atherogenic high fat diet (HFD) for 12 weeks to induce atherosclerotic lesion formation. Mice were randomly divided into five groups, and each group was treated with intraperitoneal injections of the following regimens with an equivalent dose of 1.5 mg/kg entrapped TO901317: 1) PBS, 2) DMSO, 3) TO901317 dissolved in dimethyl sulfoxide (DMSO) (free TO901317), 4) sHDL nanoparticles, or 5) TO901317-encapsulated sHDL particles. The mice were treated for 6 weeks (three times per week, on Monday, Wednesday and Friday). The monocytes from the blood were isolated and the expression of ABCA1 and ABCG1 was detected by qRT-PCR as described in FIG. 5.
# [6] = system: ABCG1; assay: qRT-PCR of ABCG1 in blood monocytes of treated apoE−/− mice; type: in vivo; settings: 1.5 mg/kg TO901317 i.p., three times per week, 6 weeks, FIG. 11
# Experimental: as §4
# [7] = Liver tissue triglyceride in apoE−/− mice; type: in vivo; settings: 1.5 mg/kg TO901317 i.p., three times per week, 6 weeks, FIG. 12
# Experimental: (§5) Six-week-old male apoE^−/− mice were place on atherogenic high fat diet (HFD) for 12 weeks to induce atherosclerotic lesion formation. Mice were randomly divided into five groups, and each group was treated with intraperitoneal injections of the following regimens with an equivalent dose of 1.5 mg/kg entrapped TO901317: 1) PBS, 2) DMSO, 3) TO901317 dissolved in dimethyl sulfoxide (DMSO) (free TO901317), 4) sHDL nanoparticles, or 5) TO901317-encapsulated sHDL particles. The mice were treated for 6 weeks (three times per week, on Monday, Wednesday and Friday). Liver tissue triglyceride concentrations were measured using a Triglyceride Quantification Kit (Cayman). Fifty mg of liver was homogenized in a 5% NP-40 buffer, and assay was performed according to manufacturer's directions.
# [8] = system: SREBP1c; assay: qRT-PCR of SREBP1c in the liver of apoE−/− mice; type: in vivo; settings: liver tissues from FIG. 12, FIG. 13
# Experimental: as §5
# LXR ligands have been implicated in triggering induction of the lipogenic pathway via activation of SREBP-1c in the liver, which leads to the adverse effects of steatosis and hypertriglyceridemia. The liver tissues from FIG. 12 were used to detect the expression of SREBP1c and Fatty acid synthase (FAS) using qRT-PCR as described in FIG. 5.
# [9] = Plasma lipids in apoE-deficient mice; type: in vivo; settings: apoE-deficient mice on HFD, i.p., three times per week, 6 weeks, FIG. 22
# Experimental: Six-week-old male apoE^−/− mice were place on HFD for 6 weeks to induce atherosclerotic lesion formation. Mice were randomized into 5 groups and received intraperitoneal injection with 1) PBS, 2) DMSO, 3) CD3254 dissolved in dimethyl sulfoxide (DMSO) (free CD3254, at 0.1 mg/kg), 4) sHDL nanoparticles, or 5) CD3254-encapsulated sHDL particles with a dose of 0.1 mg/kg of CD3254. The mice were treated for 6 weeks (three times per week, on Monday, Wednesday and Friday). Direct LDL-cholesterol (LDL-c), direct HDL-cholesterol (HDL-c), and enzymatic-colorimetric assays used to determine plasma total cholesterol (TC) and triglycerides (TG) were carried out at the Chemistry Laboratory of the Michigan Diabetes Research and Training Center.
structure (smiles),measurement,setting,value
O=S(=O)(c1ccccc1)N(CC(F)(F)F)c1ccc(C(O)(C(F)(F)F)C(F)(F)F)cc1 [TO901317],ABCA1 expression (qRT-PCR),[1],upregulated
same,ABCG1 expression (qRT-PCR),[2],upregulated
same,plasma TG levels,[3],significantly elevated
same,expression of SREBP1c in the liver (qRT-PCR),[4],activated SREBP1c
same,ABCA1 expression in monocytes (qRT-PCR),[5],activated the expression
same,ABCG1 expression in monocytes (qRT-PCR),[6],activated the expression
same,triglyceride accumulation in the liver,[7],significantly induced the accumulation of triglyceride
same,expression of SREBP1c in the liver (qRT-PCR),[8],activated SREBP1c
same,plasma TG levels,[9],significantly elevated
